Tests used:
RSV A2 = assay: Virus titre in air-liquid interface (ALI) cultured bronchial epithelial cells (plaque assay); assay type: cell-based, human respiratory syncytial virus; settings: for Effect on RSV titre (in words): early intervention
Procedure: Assessment of Virus Titre in Air-liquid Interface (ALI) Cultured Bronchial Epithelial Cells
ALI cultured human bronchial epithelial cells were sourced from Epithelix Sarl (Geneva, Switzerland) and maintained by changing the basal media every 3-4 days, whilst the apical surface was washed once weekly with PBS. On Day 0, the apical surface of each well was washed once with sterile PBS (300 μL) and the inserts were transferred to new 24-well plates containing fresh MucilAir culture medium (780 μL; EP04MM). RSV A2 (50 μL; diluted in MucilAir culture medium to give a final MOI of 0.01) was added to cells for one hr (37° C./5% CO2). For the purposes of standardizing MOI calculations, each MucilAir insert was estimated to contain 2×10^5 apical facing cells per well. Virus inoculum was removed with a pipette and inserts were washed twice with sterile PBS (300 μL).
Sampling was conducted by adding sterile PBS (300 μL) to the apical surface of each well for 5 min. The apical sample was then removed and transferred to tubes containing 50% sucrose dissolved in PBS (100 μL) before being stored at −80° C. This harvesting procedure was repeated daily beginning on day 0 and concluding on day 7.
ALI cultures were dosed apically with test compound on days 0-7 for “early intervention” protocols, or days 3-7 for “late intervention” protocols. The test compound (50 μL in 0.5% DMSO/PBS) was added to the apical surface and incubated (37° C./5% CO2) for 1 hr before being removed. Vehicle treatments (0.5% DMSO/PBS) were performed on the corresponding apical surfaces to ensure each well received the same number of manipulations. On day 5, the basal media was removed from each well and replenished with fresh MucilAir culture media as a necessary maintenance step for ALI culture cells.
Virus titre was quantified by plaque assay. HEp2 cells were grown in 24-well plates (Corning) for 48 hr prior to infection in DMEM containing 10% FBS until they attained 100% confluency. Collected samples were thawed at RT and ten-fold serial dilutions were prepared in serum-free DMEM. The growth medium from HEp2 cells was aspirated and replaced with 300 μL of serially diluted virus collections and left to infect at 37° C./5% CO2 for 4 hr. The infectious media was aspirated and replaced with Plaque Assay Overlay (500 μL; 1% methylcellulose in MEM, 2% FBS, 1% Pen Strep, 0.5 μg/mL amphotericin B), and left for 7 days at 37° C./5% CO2. Cells were fixed with ice-cold methanol for 10 min and blocked with 5% powdered milk (Marvel) in 0.05% PBS-tween (‘blocking buffer’) for 1 hr at RT. Anti-RSV F-protein antibody (2F7; Abcam: ab43812) was diluted to a 1:100 concentration in blocking buffer and added to cells for 1 hr at RT with shaking. Cells were washed using PBS and incubated with the secondary antibody (HRP conjugated goat anti-mouse secondary antibody (Dako P044701-2) diluted in 1:400 with blocking buffer) for 1 hr at RT with shaking. The secondary antibody solution was removed and cells were washed with PBS before the metal-enhanced development substrate DAB was prepared in ultra-pure water (according to manufacturer's instructions). Each well received 300 μL of development substrate (sigmaFAST D0426) until plaques were visible. Plaques were counted by eye and confirmed using light microscopy, allowing the calculation of plaque forming units per mL.

RANTES gene expression = assay: RSV infection in cotton rats: RANTES gene transcripts in lung (qRT-PCR); assay type: in vivo, Sigmodon hispidus cotton rats
Procedure: RSV Infection in Cotton Rats
Male Sigmodon hispidus cotton rats between 6 and 8 weeks of age were infected with hRSV/A/Long (ATCC, Manassas, Va.; 10^5 pfu) in a volume of 0.1 mL of sucrose stabilizing media. Test compounds were dissolved in 100% DMSO (at 3.3, 10, 33 and 100 mg/mL), then diluted at 1:10 in isotonic saline to achieve 10% DMSO in all treatments. Formulations were then sonicated to produce suspensions. The resulting suspensions were administered intranasally (50 μL) by pipette 4 hr before infection (on day 0), and then on days 1, 2 and 3 post infection. Four days after RSV challenge, the animals were euthanised and the lungs were removed. The left lobe was used for viral titration via plaque assay and the lingular lobe for RSV/A/Long NS-1 qRT-PCR and cytokine qRT-PCR.
Total RNA was also extracted from homogenized lung tissue (RNeasy purification kit; Qiagen) and a sample (1 μg) was used to prepare cDNA using QuantiTect Reverse Transcription Kit (Qiagen). For real-time PCR reactions (RSV NS-1 and RANTES genes) the QuantiFast SYBR® Green PCR Kit (Qiagen) was used in a final volume of 25 μL, with final primer concentrations of 0.5 μM. […] Baseline cycles and cycle threshold (Ct) were calculated by the iQ5 software in the PCR Base Line Subtracted Curve Fit mode. […] The mRNA levels were expressed as the geometric mean±SEM for all animals in a group.

## Cc1cnc(N2CC3(CCOCC3)C2)c(C(=O)Nc2ccc(C(=O)N3CCc4cc(C(=O)Nc5c(C)cccc5F)sc4-c4ccccc43)cc2)c1 [Example 5, N-(2-Fluoro-6-methylphenyl)-6-(4-(5-methyl-2-(7-oxa-2-azaspiro[3.5]nonan-2-yl)nicotinamido)benzoyl)-5,6-dihydro-4H-benzo[b]thieno[2,3-d]azepine-2-carboxamide]
RSV A2; early intervention (days 0-7), 0.004 mg/mL, day 0
  Virus titre in apical wash, geometric mean ± SD: 0.0 ± 0.0 log PFU/mL
RSV A2; early intervention (days 0-7), 0.004 mg/mL, day 1
  Virus titre in apical wash, geometric mean ± SD: 0.61 ± 0.86 log PFU/mL
RSV A2; early intervention (days 0-7), 0.004 mg/mL, day 2
  Virus titre in apical wash, geometric mean ± SD: 3.1 ± 0.22 log PFU/mL
RSV A2; early intervention (days 0-7), 0.004 mg/mL, day 3
  Virus titre in apical wash, geometric mean ± SD: 3.9 ± 0.18 log PFU/mL
RSV A2; early intervention (days 0-7), 0.004 mg/mL, day 4
  Virus titre in apical wash, geometric mean ± SD: 4.1 ± 0.16 log PFU/mL
RSV A2; early intervention (days 0-7), 0.004 mg/mL, day 5
  Virus titre in apical wash, geometric mean ± SD: 4.2 ± 0.12 log PFU/mL
RSV A2; early intervention (days 0-7), 0.004 mg/mL, day 6
  Virus titre in apical wash, geometric mean ± SD: 3.2 ± 0.26 log PFU/mL
RSV A2; early intervention (days 0-7), 0.004 mg/mL, day 7
  Virus titre in apical wash, geometric mean ± SD: 2.8 ± 0.43 log PFU/mL
RSV A2; early intervention (days 0-7), 0.02 mg/mL, day 0
  Virus titre in apical wash, geometric mean ± SD: 0.0 ± 0.0 log PFU/mL
RSV A2; early intervention (days 0-7), 0.02 mg/mL, day 1
  Virus titre in apical wash, geometric mean ± SD: 0.0 ± 0.0 log PFU/mL
RSV A2; early intervention (days 0-7), 0.02 mg/mL, day 2
  Virus titre in apical wash, geometric mean ± SD: 0.0 ± 0.0 log PFU/mL
RSV A2; early intervention (days 0-7), 0.02 mg/mL, day 3
  Virus titre in apical wash, geometric mean ± SD: 0.0 ± 0.0 log PFU/mL
RSV A2; early intervention (days 0-7), 0.02 mg/mL, day 4
  Virus titre in apical wash, geometric mean ± SD: 1.4 ± 1.1 log PFU/mL
RSV A2; early intervention (days 0-7), 0.02 mg/mL, day 5
  Virus titre in apical wash, geometric mean ± SD: 1.9 ± 1.4 log PFU/mL
RSV A2; early intervention (days 0-7), 0.02 mg/mL, day 6
  Virus titre in apical wash, geometric mean ± SD: 0.0 ± 0.0 log PFU/mL
RSV A2; early intervention (days 0-7), 0.02 mg/mL, day 7
  Virus titre in apical wash, geometric mean ± SD: 0.0 ± 0.0 log PFU/mL
RSV A2; early intervention (days 0-7), 0.1 mg/mL, day 0
  Virus titre in apical wash, geometric mean ± SD: 0.0 ± 0.0 log PFU/mL
RSV A2; early intervention (days 0-7), 0.1 mg/mL, day 1
  Virus titre in apical wash, geometric mean ± SD: 0.0 ± 0.0 log PFU/mL
RSV A2; early intervention (days 0-7), 0.1 mg/mL, day 2
  Virus titre in apical wash, geometric mean ± SD: 0.0 ± 0.0 log PFU/mL
RSV A2; early intervention (days 0-7), 0.1 mg/mL, day 3
  Virus titre in apical wash, geometric mean ± SD: 0.0 ± 0.0 log PFU/mL
RSV A2; early intervention (days 0-7), 0.1 mg/mL, day 4
  Virus titre in apical wash, geometric mean ± SD: 0.0 ± 0.0 log PFU/mL
RSV A2; early intervention (days 0-7), 0.1 mg/mL, day 5
  Virus titre in apical wash, geometric mean ± SD: 0.0 ± 0.0 log PFU/mL
RSV A2; early intervention (days 0-7), 0.1 mg/mL, day 6
  Virus titre in apical wash, geometric mean ± SD: 0.0 ± 0.0 log PFU/mL
RSV A2; early intervention (days 0-7), 0.1 mg/mL, day 7
  Virus titre in apical wash, geometric mean ± SD: 0.0 ± 0.0 log PFU/mL
RSV A2; 0.1 μg/mL over 7 days
  Effect on RSV titre (in words): complete inhibition
RSV A2; apical well daily from day 0 to day 7
  Effect on RSV titre (in words): concentration dependent inhibition
RSV A2; early or late stage intervention
  Effect on virus titre (in words): completely inhibited virus titre
RSV A2; late intervention (days 3-7), 0.02 mg/mL, day 0
  Virus titre in apical wash, geometric mean ± SD: 0.0 ± 0.0 log PFU/mL
RSV A2; late intervention (days 3-7), 0.02 mg/mL, day 1
  Virus titre in apical wash, geometric mean ± SD: 1.6 ± 1.1 log PFU/mL
RSV A2; late intervention (days 3-7), 0.02 mg/mL, day 2
  Virus titre in apical wash, geometric mean ± SD: 3.9 ± 0.15 log PFU/mL
RSV A2; late intervention (days 3-7), 0.02 mg/mL, day 3
  Virus titre in apical wash, geometric mean ± SD: 5.2 ± 0.04 log PFU/mL
RSV A2; late intervention (days 3-7), 0.02 mg/mL, day 4
  Virus titre in apical wash, geometric mean ± SD: 3.8 ± 0.50 log PFU/mL
RSV A2; late intervention (days 3-7), 0.02 mg/mL, day 5
  Virus titre in apical wash, geometric mean ± SD: 3.6 ± 0.13 log PFU/mL
RSV A2; late intervention (days 3-7), 0.02 mg/mL, day 6
  Virus titre in apical wash, geometric mean ± SD: 0.0 ± 0.0 log PFU/mL
RSV A2; late intervention (days 3-7), 0.02 mg/mL, day 7
  Virus titre in apical wash, geometric mean ± SD: 1.3 ± 0.94 log PFU/mL
RSV A2; late intervention (days 3-7), 0.1 mg/mL, day 0
  Virus titre in apical wash, geometric mean ± SD: 0.0 ± 0.0 log PFU/mL
RSV A2; late intervention (days 3-7), 0.1 mg/mL, day 1
  Virus titre in apical wash, geometric mean ± SD: 2.3 ± 0.35 log PFU/mL
RSV A2; late intervention (days 3-7), 0.1 mg/mL, day 2
  Virus titre in apical wash, geometric mean ± SD: 4.1 ± 0.14 log PFU/mL
RSV A2; late intervention (days 3-7), 0.1 mg/mL, day 3
  Virus titre in apical wash, geometric mean ± SD: 5.0 ± 0.14 log PFU/mL
RSV A2; late intervention (days 3-7), 0.1 mg/mL, day 4
  Virus titre in apical wash, geometric mean ± SD: 3.8 ± 0.31 log PFU/mL
RSV A2; late intervention (days 3-7), 0.1 mg/mL, day 5
  Virus titre in apical wash, geometric mean ± SD: 1.7 ± 1.2 log PFU/mL
RSV A2; late intervention (days 3-7), 0.1 mg/mL, day 6
  Virus titre in apical wash, geometric mean ± SD: 0.0 ± 0.0 log PFU/mL
RSV A2; late intervention (days 3-7), 0.1 mg/mL, day 7
  Virus titre in apical wash, geometric mean ± SD: 0.0 ± 0.0 log PFU/mL
RSV A2; late intervention, administered from day 3, days 6 and 7 post infection
  Effect on virus titre (in words): dramatic reduction of virus titre
RANTES gene expression
  Effect on RANTES transcripts in lung (in words): dose-dependent inhibition

Source: patent US10189863B2, “5,6-dihydro-4H-benzo[b]thieno-[2,3-d]azepine derivatives” (PULMOCIDE LIMITED, priority 2014, dated 2019)
